Where two headings read alike, the source gives them in different places.
Experiments:
[1] = tested on: HCV genotype 1a (H77 strain) replicon in HUH-7 cells; experiment: HCV replicon luciferase reporter assay, genotype 1a; assay type: cell-based; settings: Hepatitis C virus, Huh-7, 72 h, 3 days incubation, read-out: LE_1a (EC50, range)
Procedure, shortened: (§1)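 Replicon inhibition for both genotypes was measured as Renilla luciferase signal (EnduRen, 7.5 μM final, 2 h) after 3-day, 37° C exposure of replicon-bearing HUH-7 cells in 4% FCS DMEM, 0.5% DMSO. The 1b construct carries S1179I; the 1a H77 construct carries P1496L and S2204I. Twenty-point, 3-fold dilutions were fitted four-parametrically for EC50, and CC50 was taken from multiplexed Cell Titer-Blue.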

[2] = tested on: HCV genotype 1b (Con1) replicon in HUH-7 cells; experiment: HCV replicon luciferase reporter assay, genotype 1b; assay type: cell-based; settings: Hepatitis C virus, Huh-7, 72 h, 3 days incubation, read-out: LE_1b (EC50, range)
Procedure, shortened: as §1

[3] = HCV genotype 1a replicon luciferase assay, range class
[4] = HCV genotype 1b replicon luciferase assay, range class
[5] = HCV genotype 1a replicon luciferase
[6] = HCV genotype 1b replicon luciferase

Compound | EC50 [1, 3] | EC50 [2, 4] | EC50 [1, 5] | EC50 [2, 6]
C[C@H]1CC/C=C\[C@@H]2C[C@@]2(C(=O)NS(=O)(=O)C2CC2)NC(=O)[C@@H]2C[C@@H](Oc3nc(OCC(F)F)cc4c(Cl)cccc34)CN2C(=O)[C@@H](NC(=O)OC(C)(C)C)[C@H](C)C1 [Compound 1075, tert-butyl ((2R,6S,7R,9S,13aS,14aR,16aS,Z)-2-((5-chloro-3-(2,2-difluoroethoxy)isoquinolin-1-yl)oxy)-14a-((cyclopropylsulfonyl)carbamoyl)-7,9-dimethyl-5,16-dioxo-1,2,3,5,6,7,8,9,10,11,13a,14,14a,15,16,16a-hexadecahydrocyclopropa[e]pyrrolo[1,2-a][1,4]diazacyclopentadecin-6-yl)carbamate] | < 5.46 nM | < 5.46 nM | – | –
COc1ccc2c(O[C@@H]3C[C@H]4C(=O)N[C@]5(C(=O)NS(=O)(=O)C6CC6)C[C@H]5/C=C\CC[C@H](C)C[C@@H](C)[C@H](NC(=O)O[C@H](C)C(F)(F)F)C(=O)N4C3)nc(-c3ccc(OC(C)C)cn3)cc2c1 [Compound 5206, (R)-1,1,1-trifluoropropan-2-yl ((2R,6S,7R,9S,13aS,14aR,16aS,Z)-14a-((cyclopropylsulfonyl)carbamoyl)-2-((3-(5-isopropoxypyridin-2-yl)-6-methoxyisoquinolin-1-yl)oxy)-7,9-dimethyl-5,16-dioxo-1,2,3,5,6,7,8,9,10,11,13a,14,14a,15,16,16a-hexadecahydrocyclopropa[e]pyrrolo[1,2-a][1,4]diazacyclopentadecin-6-yl)carbamate] | – | – | < 5.46 nM | < 5.46 nM
COc1ccc2c(O[C@@H]3C[C@H]4C(=O)N[C@]5(C(=O)NS(=O)(=O)C6CC6)C[C@H]5/C=C\CC[C@@H](C)C[C@@H](C)[C@H](NC(=O)OC(C)(C)C(F)(F)F)C(=O)N4C3)nccc2c1F [Compound 3150, 1,1,1-trifluoro-2-methylpropan-2-yl((2R,6S,7R,9R,13aS,14aR,16aS,Z)-14a-((cyclopropylsulfonyl)carbamoyl)-2-((5-fluoro-6-methoxyisoquinolin-1-yl)oxy)-7,9-dimethyl-5,16-dioxo-1,2,3,5,6,7,8,9,10,11,13a,14,14a,15,16,16a-hexadecahydrocyclopropa[e]pyrrolo[1,2-a][1,4]diazacyclopentadecin-6-yl)carbamate] | < 5.46 nM | < 5.46 nM | – | –
[2H]C([2H])([2H])Oc1cnc(O[C@@H]2C[C@H]3C(=O)N[C@]4(C(=O)NS(=O)(=O)C5(C)CC5)C[C@H]4/C=C\CC[C@@H](C)C[C@@H](C)[C@H](NC(=O)OC(C([2H])([2H])[2H])(C([2H])([2H])[2H])C(F)(F)F)C(=O)N3C2)c2ccccc12 [Compound 5105, 1,1,1,3,3,3-hexadeutero-2-(trifluoromethyl)propan-2-yl((2R,6S,7R,9R,13aS,14aR,16aS,Z)-7,9-dimethyl-14a-(((1-methylcyclopropyl)sulfonyl)carbamoyl)-5,16-dioxo-2-((4-(trideuteromethoxy)isoquinolin-1-yl)oxy)-1,2,3,5,6,7,8,9,10,11,13a,14,14a,15,16,16a-hexadecahydrocyclopropa[e]pyrrolo[1,2-a][1,4]diazacyclopentadecin-6-yl)carbamate] | – | – | < 5.46 nM | < 5.46 nM
CCOc1ccc2ncc(O[C@@H]3C[C@H]4C(=O)N[C@]5(C(=O)NS(=O)(=O)C6(C)CC6)C[C@H]5/C=C\CC[C@@H](C)C[C@@H](C)[C@H](NC(=O)OC(C)(C)C)C(=O)N4C3)cc2c1 [Compound 4311, tert-butyl ((2R,6S,7R,9R,13aS,14aR,16aS,Z)-2-((6-ethoxyquinolin-3-yl)oxy)-7,9-dimethyl-14a-(((1-methylcyclopropyl)sulfonyl)carbamoyl)-5,16-dioxo-1,2,3,5,6,7,8,9,10,11,13a,14,14a,15,16,16a-hexadecahydrocyclopropa[e]pyrrolo[1,2-a][1,4]diazacyclopentadecin-6-yl)carbamate] | – | – | 1.01 to 5 nM | 1.01 to 5 nM
COc1ccc2c(O[C@@H]3C[C@H]4C(=O)N[C@]5(C(=O)NS(=O)(=O)C6CC6)C[C@H]5/C=C\CC[C@H](C)C[C@@H](C)[C@H](NC(=O)OC5C[C@@H]6C[C@@H]6C5)C(=O)N4C3)nc(-c3ccc(OC(C)C)nc3)cc2c1 (stereo partly drawn) [Compound 5218, (1R,3r,5S)-bicyclo[3.1.0]hexan-3-yl((2R,6S,7R,9S,13aS,14aR,16aS,Z)-14a-((cyclopropylsulfonyl)carbamoyl)-2-((3-(6-isopropoxypyridin-3-yl)-6-methoxyisoquinolin-1-yl)oxy)-7,9-dimethyl-5,16-dioxo-1,2,3,5,6,7,8,9,10,11,13a,14,14a,15,16,16a-hexadecahydrocyclopropa[e]pyrrolo[1,2-a][1,4]diazacyclopentadecin-6-yl)carbamate] | – | – | < 5.46 nM | < 5.46 nM
COc1ccc2c(O[C@@H]3C[C@H]4C(=O)N[C@]5(C(=O)NS(=O)(=O)C6(C)CC6)C[C@H]5/C=C\CC[C@@H](C)C[C@@H](C)[C@H](NC(=O)O[C@@H]5C[C@@H]6C[C@@H]6C5)C(=O)N4C3)nc(-c3ccc(OC(C)C)c(F)c3)cc2c1 [Compound 3072, (1R,3r,5S)-bicyclo[3.1.0]hexan-3-yl((2R,6S,7R,9R,13aS,14aR,16aS,Z)-2-((3-(3-fluoro-4-isopropoxyphenyl)-6-methoxyisoquinolin-1-yl)oxy)-7,9-dimethyl-14a-(((1-methylcyclopropyl)sulfonyl)carbamoyl)-5,16-dioxo-1,2,3,5,6,7,8,9,10,11,13a,14,14a,15,16,16a-hexadecahydrocyclopropa[e]pyrrolo[1,2-a][1,4]diazacyclopentadecin-6-yl)carbamate] | < 5.46 nM | < 5.46 nM | – | –
CCOc1nnc(O[C@@H]2C[C@H]3C(=O)N[C@]4(C(=O)NS(=O)(=O)C5CC5)C[C@H]4/C=C\CC[C@H](C)C[C@@H](C)[C@H](NC(=O)NC(C)(C)C)C(=O)N3C2)c2ccccc12 [Compound 5040, (2R,6S,7R,9S,13aS,14aR,16aS,Z)-6-(3-(tert-butyl)ureido)-N-(cyclopropylsulfonyl)-2-((4-ethoxyphthalazin-1-yl)oxy)-7,9-dimethyl-5,16-dioxo-1,2,3,5,6,7,8,9,10,11,13a,14,14a,15,16,16a-hexadecahydrocyclopropa[e]pyrrolo[1,2-a][1,4]diazacyclopentadecine-14a-carboxamide] | – | – | > 87.4 nM | > 87.4 nM
CCCOc1cc2c(Cl)cccc2c(O[C@@H]2C[C@H]3C(=O)N[C@]4(C(=O)NS(=O)(=O)C5CC5)C[C@H]4/C=C\CC[C@H](C)C[C@@H](C)[C@H](NC(=O)O[C@H](C)C(F)(F)F)C(=O)N3C2)n1 [Compound 1081, (R)-1,1,1-trifluoropropan-2-yl ((2R,6S,7R,9S,13aS,14aR,16aS,Z)-2-((5-chloro-3-propoxyisoquinolin-1-yl)oxy)-14a-((cyclopropylsulfonyl)carbamoyl)-7,9-dimethyl-5,16-dioxo-1,2,3,5,6,7,8,9,10,11,13a,14,14a,15,16,16a-hexadecahydrocyclopropa[e]pyrrolo[1,2-a][1,4]diazacyclopentadecin-6-yl)carbamate] | 4.82 to 103 nM | < 5.46 nM | – | –
CCOc1nnc(O[C@@H]2C[C@H]3C(=O)N[C@]4(C(=O)NS(=O)(=O)C5(C)CC5)C[C@H]4/C=C\CC[C@@H](C)C[C@@H](CC)[C@H](NC(=O)OC(C)(C)C(F)(F)F)C(=O)N3C2)c2ccccc12 [Compound 5049, 1,1,1-trifluoro-2-methylpropan-2-yl((2R,6S,7R,9R,13aS,14aR,16aS,Z)-2-((4-ethoxyphthalazin-1-yl)oxy)-7-ethyl-9-methyl-14a-(((1-methylcyclopropyl)sulfonyl)carbamoyl)-5,16-dioxo-1,2,3,5,6,7,8,9,10,11,13a,14,14a,15,16,16a-hexadecahydrocyclopropa[e]pyrrolo[1,2-a][1,4]diazacyclopentadecin-6-yl)carbamate] | – | – | < 5.46 nM | < 5.46 nM
CCCOc1cnc(O[C@@H]2C[C@H]3C(=O)N[C@]4(C(=O)NS(=O)(=O)C5CC5)C[C@H]4/C=C\CC[C@@H](C)C[C@@H](C)[C@H](NC(=O)NC(C)(C)C(F)(F)F)C(=O)N3C2)c2ccccc12 [Compound 5099, (2R,6S,7R,9R,13aS,14aR,16aS,Z)—N-(cyclopropylsulfonyl)-7,9-dimethyl-5,16-dioxo-2-((4-propoxyisoquinolin-1-yl)oxy)-6-(3-(1,1,1-trifluoro-2-methylpropan-2-yl)ureido)-1,2,3,5,6,7,8,9,10,11,13a,14,14a,15,16,16a-hexadecahydrocyclopropa[e]pyrrolo[1,2-a][1,4]diazacyclopentadecine-14a-carboxamide] | – | – | < 5.46 nM | < 5.46 nM
CCn1nc(O[C@@H]2C[C@H]3C(=O)N[C@]4(C(=O)NS(=O)(=O)C5CC5)C[C@H]4/C=C\CC[C@@H](C)C[C@@H](C)[C@H](NC(=O)C(=O)N(C)C)C(=O)N3C2)c2ccccc2c1=O [Compound 5076, N1-((2R,6S,7R,9R,13aS,14aR,16aS,Z)-14a-((cyclopropylsulfonyl)carbamoyl)-2-((3-ethyl-4-oxo-3,4-dihydrophthalazin-1-yl)oxy)-7,9-dimethyl-5,16-dioxo-1,2,3,5,6,7,8,9,10,11,13a,14,14a,15,16,16a-hexadecahydrocyclopropa[e]pyrrolo[1,2-a][1,4]diazacyclopentadecin-6-yl)-N2,N2-dimethyloxalamide] | – | – | > 87.4 nM | > 87.4 nM
